# Experimental data from patent US20120238604A1, “CYTOTOXIC COMPOUNDS” (Molecular Discovery Systems, priority 2009, published 2012).
# Where two headings read alike, the source gives them in different places.
# Key:
# [1] = system: HeLa cells expressing H2B-GFP; assay: Inhibition of cell proliferation (GI50) by nuclear counts, IN Cell Analyser; assay type: cell-based, human; conditions: for GI50: Homo sapiens; for GI50 / Anti-proliferative activity (effect of substitution, in words): HeLa; for GI50 / GI50 (HeLa): concentration causing 50% inhibition of cell proliferation, nuclear counts every 24 hours; for Anti-proliferative activity (effect of substitution, in words): text comment on Table 3
# Procedure: Table 3 HeLa cells expressing H2B-GFP were plated in 96-well plates and exposed to concentrations ranging from 100 μM to […] of the indicated compounds C1-C78. The number of cells was then determined every 24 hours by imaging of the plates using an IN Cell Analyser (GE Healthcare), followed by measurement of the number of intact cell nuclei using Developer™ software (GE Healthcare). Drug concentrations that cause 50% inhibition of cell proliferation (GI50) were determined from the nuclear counts using GraphPad Prism software or ED50v10 freeware.
# [2] = system: HeLa cells expressing H2B-GFP; assay: Induction of mitotic arrest (EC50), mitotic index by phospho-histone 3 staining; assay type: cell-based; conditions: Homo sapiens, concentration for 50% induction of mitotic arrest, overnight, read-out: EC50 (mitosis) (HeLa)
# Procedure: Parallel plates were treated overnight with the compounds to visualize the mitotic cells by staining with anti-phospho-histone 3 and Alexafluor 546 nm secondary antibodies after fixation with 4% paraformaldehyde. Following imaging of the nuclear GFP and phospho-histone 3 signals using an IN Cell Analyser (GE Healthcare), determination of the mitotic index by analysis of the images with Developer™ software (GE Healthcare) permitted estimation of the concentration that leads to 50% induction of the mitotic arrest (EC50). It can be seen that inhibition of cell proliferation and mitosis correlate well for the compounds tested.
# [3] = system: HeLa cells expressing H2B-GFP; assay: Perturbation of mitotic spindle organisation and assembly, anti-β-tubulin staining; assay type: cell-based, human; conditions: 20 μM, overnight
# Procedure: HeLa cells stably expressing a green fluorescent marker of nuclear DNA (H2B-GFP) were exposed overnight to carrier (DMSO) or 20 μM compounds A1 and B3. The cells were then fixed with methanol, stained with mouse monoclonal anti-β-tubulin antibody and Alexafluor 546 nm goat anti-mouse antibody, and fluorescent signal visualised by microscopy. The open circle indicates a cell with a perturbed mitotic spindle while the arrow indicates a cell with a mostly disassembled mitotic spindle.
# These cells were exposed overnight to carrier (0.1% (v/v) DMSO) or an equivalent volume of DMSO containing compounds A1 and B3 (final concentration in the culture medium was 20 μM). The cells were then briefly rinsed with phosphate-buffered saline (PBS) prior to fixation with 100% methanol at −20° C. The fixed cells were then stained with mouse monoclonal anti-β-tubulin antibody and Alexafluor 546 nm goat anti-mouse antibody (diluted 400× from commercial stocks into PBS containing 10 mg/ml bovine serum albumin (BSA)). The GFP and 546 nm fluorescence signals were then visualised using a microscope equipped for digital confocal epifluorescence imaging. The open circle in FIG. 1 represents a cell with a perturbed mitotic spindle while the arrow points to a cell with a mostly unassembled mitotic spindle.
# [4] = system: HeLa cells expressing H2B-GFP; assay: Induction of apoptosis, Annexin V binding; assay type: cell-based, human; conditions: overnight; 20 μM compound A1 or 100 nM paclitaxel
# Procedure: HeLa cells were exposed overnight to 20 μM compound A1 or 100 nM paclitaxel, stained with a fluorescent Annexin V marker of apoptosis and visualised by epifluorescence microscopy following fixation.
# FIG. 3 The H2B-GFP-expressing HeLa cells were treated overnight with 20 μM compound A1 or 100 nM paclitaxel. The cells were then exposed to Annexin-V tagged with Alexafluor 546 nm and visualized using an epifluorescence microscope equipped for digital imaging following fixation with 4% para-formaldehyde.
Structure (SMILES),GI50 [1],EC50 ([2]; values in nM),other results
COc1ccccc1/C=N/NC(=S)Nc1cccnc1C [CB52],100 to 300 nM,–,–
COc1ccccc1/C=N/NC(=S)Nc1cccc(C)c1 [C1],700 nM,–,EC50 ([2]; values given in μM): ~1 µM
COc1ccccc1/C=N/NC(=S)Nc1ccccc1Cl [C8],100 nM,0.3 µM,–
COc1ccccc1/C=N/NC(=S)Nc1ccc(F)c(Cl)c1 [C28],~3000 nM,–,–
COc1ccccc1/C=N/NC(=S)Nc1ccc(Cl)cc1Cl [CB75],–,0.02 µM,"Anti-proliferative activity (effect of substitution, in words) [1]: greatly increase the anti-proliferative activity"
COC(=O)c1sccc1NC(=S)N/N=C/c1ccccc1OC [CB50],~3000 nM,–,–
COc1ccccc1/C=N/NC(=S)Nc1cccnc1Cl [CB39],~3000 nM,–,–
COc1ccccc1/C=N/NC(=S)Nc1cc(-c2ccccc2)ccc1OC [CB59],–,~10 µM,–
COc1cccc(NC(=S)N/N=C/c2ccccc2OC)c1 [C26],1300 nM,–,EC50 ([2]; values given in μM): ~1 µM
FC(F)(F)c1ccccc1NC(=S)N/N=C/c1cccc2c1OCO2 [CB40],500 nM,–,–
CCOc1ccccc1NC(=S)N/N=C/c1cc(O)ccc1OC [CB74],–,~1 µM,–
COc1ccccc1/C=N/NC(=S)Nc1ccccc1 [C7],5000 nM,–,–
COc1ccccc1/C=N/NC(=S)NC(c1ccccc1)c1ccccc1 [CB41],~5000 nM,–,–
"Fc1ccc(NC(=S)N/N=C/c2ccccc2)cc1 [A1, BENZALDEHYDE N-(4-FLUOROPHENYL)THIOSEMICARBAZONE]",–,–,Effect on mitotic spindle organisation and assembly [3]: substantial alterations in the spatial organisation of mitotic spindle fibres and chromosomes; Induction of apoptotic cells (Annexin-V binding) [4]: induction of apoptotic cells
COc1ccccc1/C=N/NC(=S)NCc1ccccc1 [C25],–,–,GI50 (HeLa) [1]: no activity
CCOc1ccccc1NC(=S)N/N=C/c1ccncc1N [CB72],–,> 10 µM,–
COc1ccccc1/C=N/NC(=S)Nc1cccc(Cl)c1 [C24],500 nM,–,–
COc1ccccc1/C=N/NC(=S)Nc1ccc(C)cc1C [CB42],9.5 nM,–,"Anti-proliferative activity (effect of substitution, in words) [1]: greatly increase the anti-proliferative activity"
CCc1ccccc1NC(=S)N/N=C/c1ccccc1OC [CB45],13 nM,–,"Anti-proliferative activity (effect of substitution, in words) [1]: greatly increase the anti-proliferative activity"
COc1ccccc1/C=N/NC(=S)Nc1ccc(Cl)cc1 [C13],1000 nM,–,–
COc1ccccc1/C=N/NC(=S)Nc1ccccc1C#N [CB37],~3000 nM,–,–
CCOc1ccccc1NC(=S)N/N=C/c1cccnc1OC [CB73],–,~1 µM,–
COc1ccccc1/C=N/NC(=S)Nc1ccccc1CCO [CB57],–,~2 µM,–
COc1ccc(NC(=S)N/N=C/c2ccccc2OC)cc1 [C10],2000 nM,–,EC50 ([2]; values given in μM): > 1 µM
COc1ccccc1/C=N/NC(=S)Nc1ccccc1C [C6],90 nM,0.15 µM,–
Cc1cccc(NC(=S)N/N=C/c2ccccc2F)c1 [C27],≥ 20000 nM,–,–

Structure (SMILES),GI50 [1],EC50 ([2]; values in nM),other results
COc1ccccc1/C=N/NC(=S)Nc1ccc2c(c1)OCO2 [CB76],–,> 10 µM,–
COc1ccccc1/C=N/NC(=S)Nc1cnccc1C [CB53],~10000 nM,–,–
CCOc1ccccc1NC(=S)N/N=C/c1cnccc1C [CB71],–,~0.5 µM,–
COc1ccccc1/C=N/NC(=O)Nc1cccc(C)c1 [C14],4000 nM,–,–
CCOc1ccccc1NC(=S)N/N=C/c1cc(N(O)O)ccc1OC [CB68],–,> 10 µM,–
CCOc1ccccc1NC(=S)N/N=C/c1cccnc1N [CB70],–,~1 µM,–
COc1ccccc1/C=N/NC(=S)Nc1cnccc1C(F)(F)F [CB48],100 to 300 nM,–,–
C#Cc1ccccc1NC(=S)N/N=C/c1ccccc1OC [CB33],1000 nM,–,–
COc1cccc(OC)c1/C=N/NC(=S)Nc1cccc(C)c1 [C21],–,–,GI50 (HeLa) [1]: no activity
COc1ccccc1/C=N/NC(=S)Nc1c(C)cccc1C [CB44],~5000 nM,–,–
COc1ccccc1/C=N/NC(=S)Nc1ccc(C(F)(F)F)cc1 [C23],≥ 20000 nM,–,–
COc1ccccc1/C=N/NC(=S)Nc1c(C)cccc1OC [CB38],~3000 nM,–,–
COc1cc(C)c(NC(=S)N/N=C/c2ccccc2OC)cn1 [CB47],~300 nM,–,–
COc1ccccc1/C=N/NC(=S)Nc1ccc(C)cc1 [C18],700 nM,≥ 0.03 µM,–
COc1ccccc1/C=N/NC(=S)Nc1cc(Cl)cc(Cl)c1 [C16],2600 nM,–,–
COc1ccccc1/C=N/NC(=S)Nc1ccc(N)c(C(F)(F)F)c1 [CB65],–,0.1 µM,–
COc1ccccc1/C=N/NC(=S)Nc1cc(Cl)ccc1OC [CB31],15 nM,0.05 µM,–
COc1ccccc1/C=N/NC(=S)Nc1cccc2c1CCNC2 [CB69],–,> 10 µM,–
COc1ccccc1/C=N/N(C)C(=S)Nc1cccc(C)c1 [C2],~15000 nM,–,–
COc1ccccc1/C=N/NC(=S)Nc1cccc2ccccc12 [CB49],100 to 300 nM,–,–
COc1ccccc1/C=N/NC(=S)Nc1cccnc1 [CB77],–,~2 µM,–
COc1ccccc1/C=N/NC(=S)Nc1cccc(C)n1 [CB55],~1000 nM,–,–
CCOc1ccccc1NC(=S)N/N=C/c1ccccc1OC [CB34],11 nM,0.01 µM,"Anti-proliferative activity (effect of substitution, in words) [1]: greatly increase the anti-proliferative activity"
CCOCCOc1ccccc1NC(=S)N/N=C/c1ccccc1OC [CB63],–,~2 µM,–
COc1ccnc(NC(=S)N/N=C/c2ccccc2OC)c1 [CB51],~10000 nM,–,–
CCN(CC)CCOc1ccccc1NC(=S)N/N=C/c1ccccc1OC [CB66],–,> 10 µM,–

Structure (SMILES),GI50 [1],EC50 ([2]; values in nM),other results
COc1ccccc1/C=N/NC(=S)Nc1ccc(C(C)C)cc1 [CB43],~5000 nM,–,–
COc1ccccc1/C=N/NC(=S)Nc1cccc(C#N)c1 [C11],2000 nM,–,–
COc1ccccc1/C=N/NC(=S)Nc1ccc(F)c(C)c1 [CB29],1000 nM,–,–
COc1ccccc1/C(C)=N/NC(=S)Nc1cccc(C)c1 [C3],≥ 20000 nM,–,–
COc1ccccc1/C=N/NC(=S)Nc1cccnc1OC [CB54],17 nM,–,–
COc1ccccc1/C=N/NC(=S)Nc1ccc(F)cc1C(F)(F)F [CB61],–,~0.2 µM,–
COc1ccccc1Nc1nnc(-c2ccccc2OC)[nH]1 [CB78],–,> 10 µM,–
Cc1cccc(NC(=S)N/N=C/c2ccccc2C)c1 [C22],–,–,GI50 (HeLa) [1]: no activity
CCOc1ccccc1NC(=S)N/N=C/c1cnccc1OC [CB67],–,> 3 µM,–
COc1ccccc1/C=N/NC(=S)Nc1cc(C)cc(C)c1 [CB30],500 nM,–,–
COc1ccccc1/C=N/NC(=S)Nc1ccccc1OC [C15],25 nM,~0.07 µM,"Anti-proliferative activity (effect of substitution, in words) [1]: greatly increase the anti-proliferative activity"
COc1ccccc1/C=N/NC(=S)Nc1ccccc1Br [CB35],50 nM,0.1 µM,–
COc1ccccc1/C=N/NC(=S)Nc1cc(C(=O)O)ccc1OC [CB58],–,~10 µM,–
COc1ccccc1/C=N/NC(=S)Nc1cccc(F)c1 [C17],~1000 nM,–,–
COc1ccccc1/C=N/NC(=S)NCc1cccc(C)c1 [CB36],~5000 nM,–,–
COc1ccccc1/C=N/NC(=S)Nc1ccc(C#N)cc1 [C5],~20000 nM,–,–
COc1ccccc1/C=N/NC(=S)NC1CCCCC1 [C12],≥ 20000 nM,–,–
COc1ccccc1/C=N/NC(=S)Nc1ccccc1OCC(C)C [CB56],–,~1 µM,–
COc1ccccc1/C=N/NC(=S)Nc1ccc(Cl)cc1C(F)(F)F [CB62],–,~0.05 µM,–
COc1ccc(OC)c(/C=N/NC(=S)Nc2cccc(C)c2)c1 [C19],≥ 15000 nM,–,–
COc1ccccc1/C=N/NC(=S)Nc1cccc(Cl)c1OC [CB32],25 nM,–,–
COc1ccccc1/C=N/NC(=S)Nc1ccccc1C(C)C [CB46],3 nM,–,"Anti-proliferative activity (effect of substitution, in words) [1]: greatly increase the anti-proliferative activity"
COc1ccccc1/C=N/N(C)C(=S)N(C)c1cccc(C)c1 [C4],≥ 20000 nM,–,–
COc1ccccc1/C=N/NC(=S)Nc1ccccc1OC(F)(F)F [CB60],–,~0.5 µM,–
COc1ccccc1/C=N/NC(=S)Nc1ccc(-c2ccccc2)cc1OC(F)(F)F [CB64],–,> 10 µM,–
COc1cccc(/C=N/NC(=S)Nc2cccc(C)c2)c1OC [C20],–,–,GI50 (HeLa) [1]: no activity
